Several values for one entry are separate records, joined by “and”; a condition that tells them apart may be missing. Equal entries are not always repeated. Toxic doses and inconclusive results are not listed.
System: BDF1 mice, P388 leukemia ip, median survival T/C
Assay: NCI In Vivo Anticancer Drug Screen. Data for tumor model P388 Leukemia (intraperitoneal) in B6D2F1 (BDF1) mice
Conditions: endpoint: median survival time, higher = longer survival
Method in brief: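 Read-out is survival of treated animals expressed relative to the vehicle group, as a T/C ratio.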

[1] = dose: 100.0 mg/kg/injection, schedule: Q01DX009 (ip), vehicle: Klucel (hydroxypropylcellulose) (HPC)
[2] = dose: 100.0 mg/kg/injection, schedule: Q04DX003 (ip), vehicle: Klucel (hydroxypropylcellulose) (HPC)
[3] = dose: 200.0 mg/kg/injection, schedule: Q01DX009 (ip), vehicle: Klucel (hydroxypropylcellulose) (HPC)
[4] = dose: 200.0 mg/kg/injection, schedule: Q04DX003 (ip), vehicle: Klucel (hydroxypropylcellulose) (HPC)
[5] = dose: 400.0 mg/kg/injection, schedule: Q01DX009 (ip), vehicle: Klucel (hydroxypropylcellulose) (HPC)
[6] = dose: 400.0 mg/kg/injection, schedule: Q04DX003 (ip), vehicle: Klucel (hydroxypropylcellulose) (HPC)
[7] = dose: 100.0 mg/kg/injection, schedule: Q04DX003 (ip), vehicle: saline
[8] = dose: 200.0 mg/kg/injection, schedule: Q04DX003 (ip), vehicle: saline
[9] = dose: 400.0 mg/kg/injection, schedule: Q04DX003 (ip), vehicle: saline
[10] = dose: 50.0 mg/kg/injection, schedule: Q01DX009 (ip), vehicle: saline with Tween-80
[11] = dose: 50.0 mg/kg/injection, schedule: Q04DX003 (ip), vehicle: saline with Tween-80
[12] = dose: 100.0 mg/kg/injection, schedule: Q01DX009 (ip), vehicle: saline with Tween-80
[13] = dose: 100.0 mg/kg/injection, schedule: Q04DX003 (ip), vehicle: saline with Tween-80
[14] = dose: 200.0 mg/kg/injection, schedule: Q01DX009 (ip), vehicle: saline with Tween-80
[15] = dose: 200.0 mg/kg/injection, schedule: Q04DX003 (ip), vehicle: saline with Tween-80
[16] = dose: 12.5 mg/kg/injection, schedule: Q01DX009 (ip), vehicle: saline with Tween-80

With C[C@@H]1CC2=CC(=O)C=C[C@]2(C)[C@H]2CC[C@@]3(C)[C@@H](CC[C@]3(C)O)[C@H]12 the T/C (dose: 50.0 mg/kg/injection, schedule: Q01DX009 (sc), vehicle: steriod suspending solution) was 95 % of control, the T/C [1] was 88 % of control and the T/C (dose: 100.0 mg/kg/injection, schedule: Q01DX009 (sc), vehicle: steriod suspending solution) was 90 % of control. The T/C [2] was 91 % of control, the T/C [3] was 100 % of control and the T/C (dose: 200.0 mg/kg/injection, schedule: Q01DX009 (sc), vehicle: steriod suspending solution) was 86 % of control. The T/C [4] was 95 % of control, the T/C [5] was 88 % of control and the T/C [6] was 91 % of control.
In the case of CC(C)(C)OC(=O)NCC(=O)NNC(=O)OC(C)(C)C, the T/C [7] was 104 % of control, the T/C [8] was 113 % of control and the T/C [9] was 104 % of control.
COc1ccccc1NC(=S)N(C)C was tested, and the T/C [10] was 100 % of control, the T/C [11] was 113 % of control and the T/C [12] was 105 % of control. For the same compound, the T/C [13] was 109 % of control, the T/C [14] was 110 % of control and the T/C [15] was 104 % of control.
For CN1C(=O)Nc2ccc(Cl)cc2C1(O)c1ccccc1 (stereo not given), the T/C [12] was 89 % of control.
For CC(=O)NC(Cc1ccc(F)cc1)C(=O)O (stereo not given), the T/C [14] was 121 % of control.
In the case of CCOC(=O)/C(C#N)=C/c1ccc(O)c(OC)c1, the T/C [1] was 105 % of control, the T/C [2] was 95 % of control and the T/C [3] was 110 % of control. The T/C [4] was 100 % of control, the T/C [5] was 95 % of control and the T/C [6] was 100 % of control.
BrC1CCCCCC(Br)C12OCCO2 (stereo not given) was tested, and the T/C [2] was 100 % of control, the T/C [4] was 95 % of control and the T/C [6] was 100 % of control.
In the case of O=[N+]([O-])c1c(Cl)cccc1-c1c[nH]cc1Cl, the T/C [1] was 95 % of control, the T/C [3] was 95 % of control and the T/C [5] was 86 % of control.
CCOc1ccc(NC(=O)C23CC4CC(CC(C4)C2)C3)cc1 was tested, and the T/C [16] was 100 % of control, the T/C (dose: 25.0 mg/kg/injection, schedule: Q01DX009 (ip), vehicle: saline with Tween-80) was 100 % of control and the T/C [10] was 100 % of control.
In the case of C1CN(CC2COC(CN3CCOCC3)CO2)CCO1 (stereo not given), the T/C [7] was 114 % of control, the T/C [8] was 104 % of control and the T/C [9] was 104 % of control.
With COc1ccc(CCC(C)=O)cc1 the T/C [1] was 100 % of control, the T/C [2] was 95 % of control and the T/C [4] was 110 % of control. The T/C [5] was 109 % of control and the T/C [6] was 105 % of control.
O=S(=O)(Nc1ccc(O)c(Cl)c1)c1ccccc1 was tested, and the T/C [12] was 86 % of control, the T/C [14] was 100 % of control and the T/C (dose: 400.0 mg/kg/injection, schedule: Q01DX009 (ip), vehicle: saline with Tween-80) was 104 % of control.
With O=C(Nc1ccc(C2=NCCN2)cc1)c1ccc(C(=O)Nc2ccc(C3=NCCN3)cc2)c(F)c1 the T/C [13] was 172 % of control, the T/C [15] was 213 % of control and the T/C (dose: 264.0 mg/kg/injection, schedule: Q04DX003 (ip), vehicle: saline with Tween-80) was 226 % of control. For the same compound, the T/C (dose: 400.0 mg/kg/injection, schedule: Q04DX003 (ip), vehicle: saline with Tween-80) was 250 % of control and 221 % of control and the T/C (dose: 600.0 mg/kg/injection, schedule: Q04DX003 (ip), vehicle: saline with Tween-80) was 191 % of control.
For O=CNC(Cc1cccc(N(CCCl)CCCl)c1)C(=O)O (stereo not given), the T/C (dose: 11.0 mg/kg/injection, schedule: Q04DX003 (ip), vehicle: saline sonified) was 94 % of control, the T/C (dose: 16.5 mg/kg/injection, schedule: Q04DX003 (ip), vehicle: saline sonified) was 100 % of control and the T/C (dose: 25.0 mg/kg/injection, schedule: Q04DX003 (ip), vehicle: saline sonified) was 122 % of control. The T/C [11] was 177 % of control and the T/C [13] was 272 % of control.
ON=C1CSSC1 was tested, and the T/C (dose: 0.78 mg/kg/injection, schedule: Q01DX009 (ip), vehicle: saline with Tween-80) was 100 % of control, the T/C (dose: 0.78 mg/kg/injection, schedule: Q04DX003 (ip), vehicle: saline with Tween-80) was 106 % of control and the T/C (dose: 1.56 mg/kg/injection, schedule: Q01DX009 (ip), vehicle: saline with Tween-80) was 102 % of control. The T/C (dose: 1.56 mg/kg/injection, schedule: Q04DX003 (ip), vehicle: saline with Tween-80) was 100 % of control, the T/C (dose: 3.12 mg/kg/injection, schedule: Q01DX009 (ip), vehicle: saline with Tween-80) was 109 % of control and the T/C (dose: 3.12 mg/kg/injection, schedule: Q04DX003 (ip), vehicle: saline with Tween-80) was 99 % of control and 104 % of control. The T/C (dose: 6.25 mg/kg/injection, schedule: Q01DX009 (ip), vehicle: saline with Tween-80) was 90 % of control, the T/C (dose: 6.25 mg/kg/injection, schedule: Q04DX003 (ip), vehicle: saline with Tween-80) was 100 % of control and 104 % of control and the T/C [16] was 102 % of control. The T/C (dose: 12.5 mg/kg/injection, schedule: Q04DX003 (ip), vehicle: saline with Tween-80) was 99 % of control and 106 % of control.
In the case of O=NN(CCCl)C(=O)NC1CCCCC1, the T/C (dose: 2.4 mg/kg/injection, schedule: Q01DX009 (ip), vehicle: Klucel (hydroxypropylcellulose) (HPC)) was 116 % of control, the T/C (dose: 3.6 mg/kg/injection, schedule: Q01DX009 (ip), vehicle: Klucel (hydroxypropylcellulose) (HPC)) was 164 % of control and the T/C (dose: 4.0 mg/kg/injection, schedule: Q01DX009 (ip), vehicle: saline with Tween-80) was 113 % of control. The T/C (dose: 8.0 mg/kg/injection, schedule: Q01DX009 (ip), vehicle: saline with Tween-80) was 229 % of control, the T/C (dose: 12.5 mg/kg/injection, schedule: Q01DX009 (ip), vehicle: Klucel (hydroxypropylcellulose) (HPC)) was 153 % of control and the T/C (dose: 12.5 mg/kg/injection, schedule: Q01DX009 (ip), vehicle: saline) was 178 % of control. The T/C (dose: 16.0 mg/kg/injection, schedule: Q01DX009 (ip), vehicle: Klucel (hydroxypropylcellulose) (HPC)) was 249 % of control, the T/C (dose: 16.0 mg/kg/injection, schedule: Q01DX009 (ip), vehicle: saline with Tween-80) was 283 % of control and the T/C (dose: 25.0 mg/kg/injection, schedule: Q01DX001 (ip), vehicle: Klucel (hydroxypropylcellulose) (HPC)) was 220 % of control. For the same compound, the T/C (dose: 25.0 mg/kg/injection, schedule: Q01DX009 (ip), vehicle: saline) was 228 % of control, the T/C (dose: 30.0 mg/kg/injection, schedule: Q01DX001 (ip), vehicle: saline) was 103 % of control and the T/C (dose: 32.0 mg/kg/injection, schedule: Q01DX009 (ip), vehicle: saline with Tween-80) was 179 % of control. The T/C (dose: 35.0 mg/kg/injection, schedule: Q01DX009 (ip), vehicle: Klucel (hydroxypropylcellulose) (HPC)) was 103 % of control, the T/C (dose: 40.0 mg/kg/injection, schedule: Q01DX001 (ip), vehicle: saline) was 548 % of control and 183 % of control and the T/C (dose: 50.0 mg/kg/injection, schedule: Q01DX001 (ip), vehicle: Klucel (hydroxypropylcellulose) (HPC)) was 113 % of control. For the same compound, the T/C (dose: 50.0 mg/kg/injection, schedule: Q01DX001 (ip), vehicle: saline) was 174 % of control, the T/C (dose: 60.0 mg/kg/injection, schedule: Q01DX001 (oral), vehicle: carboxymethylcellulose (CMC)) was 526 % of control and 166 % of control and the T/C (dose: 64.0 mg/kg/injection, schedule: Q01DX009 (ip), vehicle: saline with Tween-80) was 88 % of control. The T/C (dose: 70.0 mg/kg/injection, schedule: Q01DX001 (ip), vehicle: saline) was 256 % of control, the T/C (dose: 90.0 mg/kg/injection, schedule: Q01DX001 (oral), vehicle: carboxymethylcellulose (CMC)) was 210 % of control and 219 % of control and the T/C (dose: 100.0 mg/kg/injection, schedule: Q01DX001 (ip), vehicle: carboxymethylcellulose (CMC)) was 219 % of control. The T/C (dose: 135.0 mg/kg/injection, schedule: Q01DX001 (oral), vehicle: carboxymethylcellulose (CMC)) was 173 % of control, the T/C (dose: 150.0 mg/kg/injection, schedule: Q01DX001 (ip), vehicle: carboxymethylcellulose (CMC)) was 526 % of control and the T/C (dose: 200.0 mg/kg/injection, schedule: Q01DX001 (oral), vehicle: carboxymethylcellulose (CMC)) was 236 % of control.
For c1ccc([P+](CCCCCCCCCC[P+](c2ccccc2)(c2ccccc2)c2ccccc2)(c2ccccc2)c2ccccc2)cc1, the T/C (dose: 2.5 mg/kg/injection, schedule: Q01DX010 (ip), vehicle: saline) was 100 % of control and the T/C (dose: 5.0 mg/kg/injection, schedule: Q01DX010 (ip), vehicle: saline) was 109 % of control.
For CCCCCCCSCCSCCSCCCCCCC, the T/C (dose: 100.0 mg/kg/injection, schedule: Q01DX001 (ip), vehicle: Klucel (hydroxypropylcellulose) (HPC)) was 100 % of control, the T/C (dose: 200.0 mg/kg/injection, schedule: Q01DX001 (ip), vehicle: Klucel (hydroxypropylcellulose) (HPC)) was 100 % of control and the T/C (dose: 400.0 mg/kg/injection, schedule: Q01DX001 (ip), vehicle: Klucel (hydroxypropylcellulose) (HPC)) was 100 % of control.

Source: PubChem BioAssay AID328 (DTP/NCI, 2004)
